Reference: patent US20100323990A1, “SHIP 1 MODULATOR PRODRUGS” (THE UNIVERSITY OF BRITISH COLUMBIA, priority 2006, published 2010)

Legend:
[1] = system: J774.1a macrophage cells; experiment: Macrophage TNF-α NO assay (Assay 3), Griess reagent; type: cell-based; details: 10 μg/ml test compound, LPS, supernatants after 24 hr; further: key: a ‘+’ indicates a positive result for desired activity; a ‘−’ indicates a negative result for desired activity
Description: (§1) Assay 1) In vitro testing in a SHIP enzyme assay. Test compounds were dissolved in a suitable solvent (e.g. EtOH, DMSO and others) and diluted into aqueous buffer (20 mM Tris HCl, pH 7.5 and 10 mM MgCl2). SHIP enzyme assays were performed in 96-well microtitre plates with 10 ng of enzyme/well in a total volume of 25 μL of 20 mM Tris HCl, pH 7.5 and 10 mM MgCl2. SHIP enzyme was incubated with test extracts (provided in solvent) or vehicle for 15 min at 23° C. before the addition of 100 μM inositol-1,3,4,5-tetrakisphosphate (Echelon Biosciences Inc, Salt Lake City, Utah). After 20 min at 37° C. and the amount of inorganic phosphate released assessed by the addition of Malachite Green reagent and absorbance measurement at 650 nm. Assay 2) Macrophage TNF-α production. J774.1a macrophage cells were treated with 10 μg/mL of test compound dissolved in solvent (e.g. cyclodextran) for 40 minutes prior to the addition of 100 ng/mL LPS. Culture supernatants were collected after 2 hr and 5 hr for TNF-α determination by ELISA. Assay 3) Macrophage TNF-α NO assay. J774.1a macrophage cells were treated with 10 μg/ml of test compound dissolved in solvent for 40 minutes prior to the addition of LPS. Culture supernatants were collected after 24 hr. for determination of NO concentration using the Griess reagent. Assay 4) Stimulation of mast cells by FcεRI crosslinking. Mast cells were pre-loaded overnight in BMMC medium lacking IL-3 with 0.1 μg/ml anti-DNP IgE (SPE-7, Sigma, Oakville, Ont). For calcium flux measurements, cells were incubated with 2 μM fura 2-acetoxymethyl ester (Molecular Probes, Eugene, Oreg.) in Tyrode's buffer at 23° C. for 45 min. Cells were then washed and incubated in the presence of the test compound 30 min prior to stimulation with the indicated concentration of DNP-human serum albumin (DNP-HSA). Calcium influx was monitored by spectrofluorometry as described previously. For analysis of intracellular signaling, cells were pre-loaded with anti-DNP IgE as above, pre-treated with the test compound for 30 min at 37° C. and stimulated with 20 ng/ml DNP-HSA for 5 min. Total cell lysates were then prepared and analyzed for phospho-PKB, phospho-p38^MAPK, phospho-MAPK, Grb-2 (Cell Signalling, Mississauga, Ont) and SHIP^6 by immunoblot analysis. Assay 5) Mouse acute cutaneous anaphylaxis model. 6-8 week old CD1 mice (University of British Columbia Animal Facility, Vancouver, BC) were sensitized to the hapten DNP by cutaneous application of 25 μL of 0.5% dinitrofluorobenzene (DNFB) (Sigma, Oakville, Ont) in acetone to the shaved abdomen of mice for two consecutive days. 24 hrs later, test substances (dissolved in 10 μL of 1:2 DMSO:MeOH) were painted on the right ear while the left ear received vehicle control. 30 min after drug application, DNFB was applied to both ears to induce mast cell degranulation. A 6 mm punch was taken from the ear and immediately frozen on dry ice for subsequent determination of neutrophil myeloperoxidase (MPO) activity. Assay 6) Mouse endotoxemia model. 6-8 week old C57B16 mice (VCHRI Mammalian Model of Human Disease Core Facility, Vancouver, BC) were orally administered the test compound 30 min prior to an IP injection of 2 mg/kg of LPS (E. Coli serotype 0111:B4, Sigma, Oakville, Ont). Blood was drawn 2 hrs later for determination of plasma TNFα by ELISA. Assay 7) In vitro Mulitple Myeloma (MM) assay. The ability of SHIP activators to reduce tumor cell survival was assessed in MM cell lines treated with the test compound. The lines OPM1, OPM2, MM.1S and RPMI 8226 were plated at a density of 1×10^5 cells/mL in 200 μL of medium with various concentrations of the test compound, and viable cell numbers were determined on day 3 and day 5 by trypan blue exclusion. The lines RPMI 8226 and U266 were plated at a density of 1×10^6 cells/mL in 250 μL of medium with various concentrations of the test compound. At day 4, the medium of each culture was replaced by fresh medium containing the same concentration of test compound. […]

[2] = system: J774.1a macrophage cells; experiment: Macrophage TNF-α production (Assay 2); type: cell-based; details: 10 μg/mL test compound, 100 ng/mL LPS, supernatants after 2 hr and 5 hr; further: key: a ‘+’ indicates a positive result for desired activity; a ‘−’ indicates a negative result for desired activity
Description: as §1

[3] = system: J774.1 macrophage cells; experiment: TNFα production in LPS-stimulated J774.1 macrophages (Example 9); type: cell-based; details: 2 ng/mL LPS
Description: An assay to determine the relative inhibition of TNFα production by Compound 103 compared to Compound 100 was conducted as follows.
J774.1 macrophage cells were plated at 2×10^5 cells/well in 24 well plates. The next day the media was changed and Compound 100, Compound 103 or cyclodextrin carrier were added to the wells at the indicated concentrations for 30 min prior to stimulation of the cells with 2 ng/mL lipopolysaccharide (LPS). LPS activation of macrophages leads to production of TNF alpha which can be detected in the culture supernatant and quantified by ELISA. The results are depicted in a graph in FIG. 1.

[4] = system: SHIP−/− bone marrow derived macrophages; experiment: LPS-stimulated TNFα production in SHIP−/− bone marrow derived macrophages; type: cell-based, mice; details: SHIP−/− cells, 15 μM, 10 ng/mL LPS 2 h
Description: (§2) Bone marrow cells were aspirated from 4 to 8 week old C57B16×129Sv mixed background mice and SHIP^+/+ and SHIP^−/− mast cells prepared as described previously. Bone marrow derived macrophages from SHIP^+/+ and SHIP^−/− mice were obtained and maintained in IMDM supplemented with 10% FCS, 150 μM MTG, 2% C127 cell conditioned medium as a source of macrophage colony stimulating factor (M-CSF) (macrophage medium)
LPS stimulation of macrophages. For the analysis of LPS-stimulated TNFα production, 2×10^5 cells were plated the night before in 24 well plates in macrophage medium. The next day, the medium was changed and AQX-016A or carrier was added to cells at the indicated concentrations for 30 min prior to the addition of 10 ng/mL LPS. Supernatants were collected for TNFα determination by ELISA (BD Biosciences, Mississauga, ON, Canada). For analysis of intracellular signaling, 2×10^6 cells were plated the night before in 6 cm tissue culture plates. […] Calcium influx was monitored by spectrofluorometry. […] Total cell lysates were then prepared and analyzed for phospho-PKB, phospho-p38^MAPK, phospho-MAPK, Grb-2 (Cell Signalling, Mississauga, Ont) and SHIP^6 by immunoblot analysis.
The target specificity and biological efficacy of AQX-016A were assessed by comparing AQX-016A's effects on PI3K-regulated processes in primary SHIP^+/+ vs SHIP^−/− macrophages and mast cells. […]

[5] = system: SHIP+/+ bone marrow derived macrophages; experiment: LPS-stimulated TNFα production in SHIP+/+ bone marrow derived macrophages; type: cell-based, mice; details: SHIP+/+ cells, 15 μM, 10 ng/mL LPS 2 h
Description: as §2
LPS stimulation of macrophages. For the analysis of LPS-stimulated TNFα production, 2×10^5 cells were plated the night before in 24 well plates in macrophage medium. The next day, the medium was changed and AQX-016A or carrier was added to cells at the indicated concentrations for 30 min prior to the addition of 10 ng/mL LPS. Supernatants were collected for TNFα determination by ELISA (BD Biosciences, Mississauga, ON, Canada). For analysis of intracellular signaling, 2×10^6 cells were plated the night before in 6 cm tissue culture plates. The next day, the cells were cultured in macrophage medium without M-CSF for 1 hr at 37° C. and then pretreated with AQX-016A or carrier for 30 min prior to the addition of 10 ng/mL LPS for 15 min. Cells were washed with 4° C. PBS and resuspended in lysis buffer (50 mM Hepes, 2 mM EDTA, 1 mM NaVO4, 100 mM NaF, 50 mM NaPPi and 1% NP40) supplemented with Complete Protease Inhibitor Cocktail (Roche, Montreal, Canada). Lysates were rocked at 4° C. for 30 min and clarified by centrifuging 20 min at 12000×g. Lysates were then made 1× in Laemmli's buffer, boiled 2 min and loaded onto 7.5% SDS polyacrylamide […]. Immunoblot analysis for phospho PKB (Cell Signalling, Mississauga, Ont), SHIP and actin (Santa Cruz, Santa Cruz, Calif.) were carried out as described previously. Stimulation of mast cells by FcεRI crosslinking. Mast cells were pre-loaded overnight in BMMC medium lacking IL-3 with 0.1 μg/ml anti-DNP IgE (SPE-7, Sigma, Oakville, Ont). For calcium flux measurements, cells were incubated with 2 μM fura 2-acetoxymethyl ester (Molecular Probes, Eugene, Oreg.) in Tyrode's buffer at 23° C. for 45 min. Cells were then washed and incubated in the presence of vehicle control, LY294002 or AQX-016A 30 min prior to stimulation with the indicated concentration of DNP-human serum albumin (DNP-HSA). Calcium influx was monitored by spectrofluorometry. For analysis of intracellular signaling, cells were pre-loaded with anti-DNP IgE as above, pre-treated with AQX-016A or buffer control for 30 min at 37° C. and stimulated with 20 ng/ml DNP-HSA for 5 min. Total cell lysates were then prepared and analyzed for phospho-PKB, phospho-p38^MAPK, phospho-MAPK, Grb-2 (Cell Signalling, Mississauga, Ont) and SHIP^6 by immunoblot analysis.
The target specificity and biological efficacy of AQX-016A were assessed by comparing AQX-016A's effects on PI3K-regulated processes in primary SHIP^+/+ vs SHIP^−/− macrophages and mast cells. […] LPS stimulation of macrophages is associated with a PIP3-dependent release of pro-inflammatory mediators such as TNFα. The action of AQX-016A on SHIP^+/+ vs SHIP^−/− bone marrow derived macrophages was examined. Cells were pretreated for 30 min with AQX-016A prior to stimulation with 10 ng/mL of LPS for 2 h. AQX-016A was able to suppress TNFα production in SHIP^+/+ cells by 30% at 3 μM and 50% at 15 μM (FIG. 8A). […] Activation of mast cells via IgE+ antigen crosslinking of their IgE receptors results in elevation of intracellular calcium levels.

[6] = system: SHIP enzyme; experiment: In vitro SHIP enzyme assay (Assay 1), phosphate release by Malachite Green; type: biochemical; details: PI-3,4-P2 20 μM, Compound 100 3 μM, 30 μM IP4
Description: as §1

[7] = biological target: T1, ΔC2 SHIP (Homo sapiens, UniProt Q92835, DEL725-863); experiment: SHIP enzyme assay with C2 domain deleted SHIP; type: biochemical; details: PI-3,4-P2 20 μM, Compound 100 3 μM, 30 μM IP4
T1 construct: His6; made in house; host or cells: mammalian expression vector pME18S
T1 sequence (Q92835 with tags, fused parts or gaps DEL725-863): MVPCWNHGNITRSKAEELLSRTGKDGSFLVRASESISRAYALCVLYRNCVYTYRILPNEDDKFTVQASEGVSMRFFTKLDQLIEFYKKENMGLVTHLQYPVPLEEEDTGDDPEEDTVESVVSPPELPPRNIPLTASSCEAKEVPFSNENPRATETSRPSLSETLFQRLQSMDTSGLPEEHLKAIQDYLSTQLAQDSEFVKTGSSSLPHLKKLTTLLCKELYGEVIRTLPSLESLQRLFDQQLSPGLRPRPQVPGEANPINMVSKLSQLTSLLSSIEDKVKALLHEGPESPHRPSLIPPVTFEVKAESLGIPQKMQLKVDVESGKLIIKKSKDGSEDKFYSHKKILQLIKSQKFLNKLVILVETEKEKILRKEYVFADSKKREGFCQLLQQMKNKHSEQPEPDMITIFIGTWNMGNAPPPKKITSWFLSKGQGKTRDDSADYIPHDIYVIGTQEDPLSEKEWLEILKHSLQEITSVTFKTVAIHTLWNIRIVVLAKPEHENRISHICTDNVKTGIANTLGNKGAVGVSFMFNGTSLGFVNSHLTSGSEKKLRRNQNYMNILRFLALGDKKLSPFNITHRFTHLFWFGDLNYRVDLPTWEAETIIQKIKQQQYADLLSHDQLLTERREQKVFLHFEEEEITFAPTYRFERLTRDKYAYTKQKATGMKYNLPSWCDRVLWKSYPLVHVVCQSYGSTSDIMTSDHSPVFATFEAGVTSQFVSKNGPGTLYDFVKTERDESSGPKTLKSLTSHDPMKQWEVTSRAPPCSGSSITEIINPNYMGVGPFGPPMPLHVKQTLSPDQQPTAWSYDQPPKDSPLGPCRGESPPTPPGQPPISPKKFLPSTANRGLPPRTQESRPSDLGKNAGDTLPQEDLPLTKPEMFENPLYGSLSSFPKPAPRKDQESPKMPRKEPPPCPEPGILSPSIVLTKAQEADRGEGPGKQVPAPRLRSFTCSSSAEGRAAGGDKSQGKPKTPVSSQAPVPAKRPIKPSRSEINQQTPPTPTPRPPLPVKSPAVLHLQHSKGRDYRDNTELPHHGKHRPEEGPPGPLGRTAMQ
Source text: A His6 tagged SHIP ΔC2 domain deletion mutant (deleting residues 725 to 863) in the mammalian expression vector pME18S was generated by a standard PCR-based methodology. An N-terminal His6 C2 domain construct was also generated by PCR inserted into the pET28C bacterial expression vector using EcoRI and NdeI restriction sites.
The allosteric regulation of enzymes has remained under-appreciated primarily because allosteric effectors are not easy to find. The molecular mechanism by which Compound 100 activated SHIP was investigated, first by performing classical enzyme kinetic analysis of its phosphatase activity. Activity measurements were performed with substrate concentrations from 10-100 μM.
The SHIP protein contains a C2 domain located at the carboxyterminal end of its phosphatase domain. […] SHIP lacking its the C2 domain (ΔC2 SHIP) was prepared.

In the case of `Cc1cc(OC(=O)CN)cc2c1[C@]1(C)CCC3C(C)(C)CCC[C@]3(C)[C@H]1C2` (stereo partly shown) [Compound 103], the “Assay 3: Macrophage NO assay, desired activity” value [1] is reported as “+”, the “Assay 2: Macrophage TNF-α production, desired activity” value [2] is reported as “+” and the “relative inhibition of TNFα production” value [3] is reported as “Inhibits TNF Alpha Production Better than Compound 100”.

With `O=c1cc(N2CCOCC2)oc2c(-c3ccccc3)cccc12` [LY294002, reference compound] the “suppression of TNFα production” value [4] was ~40% and the “suppression of TNFα production” value [5] was ~40%.

`CCCCCCCCCCCCCCCC(=O)OC[C@H](COP(=O)(O)O[C@H]1[C@H](O)[C@@H](O)[C@H](OP(=O)(O)O)[C@@H](OP(=O)(O)O)[C@H]1O)OC(=O)CCCCCCCCCCCCCCC` [PI-3,4-P2, reference compound] was tested, and the “activation of wild-type SHIP enzyme” value [6] was “activated wild-type SHIP enzyme to a similar extent as Compound 100” and the “enhancement of ΔC2 SHIP activity” value [7] was “could not be enhanced”.
